From patent publication US9175003B2, “Substituted azoanthracene derivatives and intermediates for preparation thereof” (TransTech Pharma, LLC, priority 2009, dated 2015) come the findings set out here.

The EC50 is the concentration needed to bring the measured effect to its halfway point.

Structures are written as SMILES.

For the assay, the target named is human GLP-1 receptor (Homo sapiens (Human), UniProt P43220). Particulars: read-out: Mean EC50; cAMP, HTRF detection, 30 min at 37° C., HEK-293 cells expressing cloned human GLP-1 receptor. For orientation: In TR-FRET formats the signal depends on donor and acceptor labels being close together.
Chain of human GLP-1 receptor (P43220 24-463): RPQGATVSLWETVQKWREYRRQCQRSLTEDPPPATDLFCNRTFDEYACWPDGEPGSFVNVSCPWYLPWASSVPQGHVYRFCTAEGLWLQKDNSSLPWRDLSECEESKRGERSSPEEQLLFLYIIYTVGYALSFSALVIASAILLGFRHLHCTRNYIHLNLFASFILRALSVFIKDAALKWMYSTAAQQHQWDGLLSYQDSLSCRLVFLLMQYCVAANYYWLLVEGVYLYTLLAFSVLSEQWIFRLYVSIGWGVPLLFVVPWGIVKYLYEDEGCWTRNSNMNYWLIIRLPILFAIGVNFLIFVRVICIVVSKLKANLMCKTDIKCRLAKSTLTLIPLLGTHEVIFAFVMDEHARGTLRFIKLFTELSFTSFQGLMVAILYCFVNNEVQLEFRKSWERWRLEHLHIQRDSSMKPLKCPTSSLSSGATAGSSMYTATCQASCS

As to `Cc1nccc(-c2ccc(C[C@H](NC(=O)[C@@H]3Cc4cc5c(cc4CN3C(=O)N[C@H](C)c3ccccc3)O[C@@H](c3ccc(OCc4cc(Cl)cc(Cl)c4)cc3)CO5)C(=O)O)cc2)c1C` [Example 393, (S)-2-{[(3S,8S)-3-[4-(3,5-dichloro-benzyloxy)-phenyl]-7-((R)-1-phenyl-ethylcarbamoyl)-2,3,6,7,8,9-hexahydro-[1,4]dioxino[2,3-g]isoquinoline-8-carbonyl]-amino}-3-[4-(2,3-dimethyl-pyridin-4-yl)-phenyl]-propionic acid], the concentration for a half-maximal effect (EC50) amounted to 74 nM.

For `Cc1nccc(-c2ccc(C[C@H](NC(=O)[C@@H]3Cc4cc5c(cc4CN3C(=O)N[C@H](C)c3ccccc3)O[C@@H](c3ccc(OCCc4ccc(Cl)c(Cl)c4)cc3)CO5)C(=O)O)cc2)c1C` [Example 396, (S)-2-{[(3S,8S)-3-{4-[2-(3,4-Dichloro-phenyl)-ethoxy]-phenyl}-7-((R)-1-phenyl-ethylcarbamoyl)-2,3,6,7,8,9-hexahydro-[1,4]dioxino[2,3-g]isoquinoline-8-carbonyl]-amino}-3-[4-(2,3-dimethyl-pyridin-4-yl)-phenyl]-propionic acid], the EC50 amounted to 156 nM.

For `Cc1nccc(Oc2ccc(C[C@H](NC(=O)[C@@H]3Cc4cc5c(cc4CN3C(=O)OC(C)(C)C)O[C@@H](c3ccc(OCc4ccc(Cl)c(Cl)c4)cc3)CO5)C(=O)O)cc2)c1C` [Example 403, (3S,8S)-8-{(S)-1-Carboxy-2-[4-(2,3-dimethyl-pyridin-4-yloxy)-phenyl]-ethylcarbamoyl}-3-[4-(3,4-dichloro-benzyloxy)-phenyl]-2,3,8,9-tetrahydro-6H-[1,4]dioxino[2,3-g]isoquinoline-7-carboxylic acid tert-butyl ester], the EC50 stood at 138 nM.

Regarding `Cc1nc(C(=O)N2Cc3cc4c(cc3C[C@H]2C(=O)N[C@@H](Cc2ccc(-c3ccnc(C)c3C)cc2)C(=O)O)OC[C@H](c2ccc(OCC3CCCCC3)cc2)O4)c(C)o1` [Example 405, (S)-2-{[(3S,8S)-3-(4-Cyclohexylmethoxy-phenyl)-7-(2,5-dimethyl-oxazole-4-carbonyl)-2,3,6,7,8,9-hexahydro-[1,4]dioxino[2,3-g]isoquinoline-8-carbonyl]-amino}-3-[4-(2,3-dimethyl-pyridin-4-yl)-phenyl]-propionic acid], the EC50 came to 213 nM.

As to `Cc1nccc(-c2ccc(C[C@H](NC(=O)[C@@H]3Cc4cc5c(cc4CN3C(=O)c3cccc(F)c3)O[C@@H](c3ccc(OCc4ccc(Cl)c(Cl)c4)cc3)CO5)C(=O)O)cc2)c1C` [Example 409, (S)-2-{[(3S,8S)-3-[4-(3,4-Dichloro-benzyloxy)-phenyl]-7-(3-fluoro-benzoyl)-2,3,6,7,8,9-hexahydro-[1,4]dioxino[2,3-g]isoquinoline-8-carbonyl]-amino}-3-[4-(2,3-dimethyl-pyridin-4-yl)-phenyl]-propionic acid], the EC50 is 24 nM.

As for `Cc1nc(N)sc1S(=O)(=O)N1Cc2cc3c(cc2C[C@H]1C(=O)N[C@@H](Cc1ccc(-c2ccnc(C)c2C)cc1)C(=O)O)OC[C@H](c1ccc(OCc2ccc(Cl)c(Cl)c2)cc1)O3` [Example 411, (S)-2-({(3S,8S)-7-(2-Amino-4-methyl-thiazole-5-sulfonyl)-3-[4-(3,4-dichloro-benzyloxy)-phenyl]-2,3,6,7,8,9-hexahydro-[1,4]dioxino[2,3-g]isoquinoline-8-carbonyl}-amino)-3-[4-(2,3-dimethyl-pyridin-4-yl)-phenyl]-propionic acid], the EC50 is 9 nM.

Consider `Cc1nccc(-c2ccc(C[C@H](NC(=O)[C@@H]3Cc4cc5c(cc4CN3C(=O)N[C@H](C)c3ccccc3)O[C@@H](c3cccc(OCc4ccc(Cl)c(Cl)c4)c3)CO5)C(=O)O)cc2)c1C` [Example 414, (S)-2-{[(3S,8S)-3-[3-(3,4-Dichloro-benzyloxy)-phenyl]-7-((R)-1-phenylethylcarbamoyl)-2,3,6,7,8,9-hexahydro-[1,4]dioxino[2,3-g]isoquinoline-8-carbonyl]-amino}-3-[4-(2,3-dimethyl-pyridin-4-yl)-phenyl]-propionic acid], for which the EC50 is 191 nM.

Regarding `Cc1nc(C(=O)N2Cc3cc4c(cc3C[C@H]2C(=O)N[C@@H](Cc2ccc(-c3ccnc(C)c3C)cc2)C(=O)O)OC[C@H](c2cccc(OCc3ccc(Cl)c(Cl)c3)c2)O4)c(C)o1` [Example 415, (S)-2-{[(3S,8S)-3-[3-(3,4-Dichloro-benzyloxy)-phenyl]-7-(2,5-dimethyl-oxazole-4-carbonyl)-2,3,6,7,8,9-hexahydro-[1,4]dioxino[2,3-g]isoquinoline-8-carbonyl]-amino}-3-[4-(2,3-dimethyl-pyridin-4-yl)-phenyl]-propionic acid], the EC50 came to 75 nM.

Take `CC[C@@H](c1ccccc1)N1Cc2cc3c(cc2C[C@H]1C(=O)N[C@@H](Cc1ccc(-c2ccnc(C)c2C)cc1)C(=O)O)OC[C@H](c1cccc(OCc2ccc(Cl)c(Cl)c2)c1)O3` [Example 419, (S)-2-{[(3S,8S)-3-[3-(3,4-Dichloro-benzyloxy)-phenyl]-7-((S)-1-phenyl-propyl)-2,3,6,7,8,9-hexahydro-[1,4]dioxino[2,3-g]isoquinoline-8-carbonyl]-amino}-3-[4-(2,3-dimethyl-pyridin-4-yl)-phenyl]-propionic acid]: the EC50 was 90 nM.

Turning to `CC[C@@H](c1ccccc1)N1Cc2cc3c(cc2C[C@H]1C(=O)N[C@@H](Cc1ccc(Oc2ccnc(C)c2C)cc1)C(=O)O)OC[C@H](c1cccc(OCc2ccc(Cl)c(Cl)c2)c1)O3` [Example 422, (S)-2-{[(3S,8S)-3-[3-(3,4-Dichloro-benzyloxy)-phenyl]-7-((S)-1-phenyl-propyl)-2,3,6,7,8,9-hexahydro-[1,4]dioxino[2,3-g]isoquinoline-8-carbonyl]-amino}-3-[4-(2,3-dimethyl-pyridin-4-yloxy)-phenyl]-propionic acid], the EC50 stood at 8 nM.

As for `CC[C@@H](c1ccccc1)N1Cc2cc3c(cc2C[C@H]1C(=O)N[C@@H](Cc1ccc(-c2ccnc(C)c2C)cc1)C(=O)O)OC[C@H](c1ccc(Oc2ccccc2)cc1)O3` [Example 424, (S)-3-[4-(2,3-Dimethyl-pyridin-4-yl)-phenyl]-2-{[(3S,8S)-3-(4-phenoxy-phenyl)-7-((S)-1-phenyl-propyl)-2,3,6,7,8,9-hexahydro-[1,4]dioxino[2,3-g]isoquinoline-8-carbonyl]-amino}-propionic acid], the EC50 came to 203 nM.

On to `Cc1nccc(-c2ccc(C[C@H](NC(=O)[C@@H]3Cc4cc5c(cc4CN3C(=O)OC(C)(C)C)O[C@H](c3ccc(OCc4ccc(Cl)c(Cl)c4)cc3)CO5)C(=O)O)cc2)c1C` [Example 427, (3R,8S)-8-{(S)-1-Carboxy-2-[4-(2,3-dimethyl-pyridin-4-yl)-phenyl]-ethylcarbamoyl}-3-[4-(3,4-dichloro-benzyloxy)-phenyl]-2,3,8,9-tetrahydro-6H-[1,4]dioxino[2,3-g]isoquinoline-7-carboxylic acid tert-butyl ester], for which the EC50 was 84 nM.

Consider `Cc1nc(C(=O)N2Cc3cc4c(cc3C[C@H]2C(=O)N[C@@H](Cc2ccc(-c3ccnc(C)c3C)cc2)C(=O)O)OC[C@@H](c2ccc(OCc3ccc(Cl)c(Cl)c3)cc2)O4)c(C)o1` [Example 428, (S)-2-{[(3R,8S)-3-[4-(3,4-Dichloro-benzyloxy)-phenyl]-7-(2,5-dimethyl-oxazole-4-carbonyl)-2,3,6,7,8,9-hexahydro-[1,4]dioxino[2,3-g]isoquinoline-8-carbonyl]-amino}-3-[4-(2,3-dimethyl-pyridin-4-yl)-phenyl]-propionic acid], for which the EC50 stood at 22 nM.

With `Cc1nccc(-c2ccc(C[C@H](NC(=O)[C@@H]3Cc4cc5c(cc4CN3C(=O)N[C@H](C)c3ccccc3)O[C@H](c3ccc(OCc4ccc(Cl)c(Cl)c4)cc3)CO5)C(=O)O)cc2)c1C` [Example 429, (S)-2-{[(3R,8S)-3-[4-(3,4-Dichloro-benzyloxy)-phenyl]-7-((R)-1-phenyl-ethylcarbamoyl)-2,3,6,7,8,9-hexahydro-[1,4]dioxino[2,3-g]isoquinoline-8-carbonyl]-amino}-3-[4-(2,3-dimethyl-pyridin-4-yl)-phenyl]-propionic acid], the EC50 amounted to 32 nM.

Turning to `CC[C@@H](c1ccccc1)N1Cc2cc3c(cc2C[C@H]1C(=O)N[C@@H](Cc1ccc(-c2ccnc(C)c2C)cc1)C(=O)O)OC[C@@H](c1ccc(OCc2ccc(Cl)c(Cl)c2)cc1)O3` [Example 430, (S)-2-{[(3R,8S)-3-[4-(3,4-Dichloro-benzyloxy)-phenyl]-7-((S)-1-phenyl-propyl)-2,3,6,7,8,9-hexahydro-[1,4]dioxino[2,3-g]isoquinoline-8-carbonyl]-amino}-3-[4-(2,3-dimethyl-pyridin-4-yl)-phenyl]-propionic acid], the EC50 was determined as 12 nM.

Consider `Cc1nc(C(=O)N2Cc3cc4c(cc3C[C@H]2C(=O)N[C@@H](Cc2ccc(-c3ccnc(C)c3C)cc2)C(=O)O)OC[C@H](c2ccc(OCc3ccc(Cl)c(Cl)c3)cc2)O4)co1` [Example 431, (S)-2-{[(3S,8S)-3-[4-(3,4-Dichloro-benzyloxy)-phenyl]-7-(2-methyl-oxazole-4-carbonyl)-2,3,6,7,8,9-hexahydro-[1,4]dioxino[2,3-g]isoquinoline-8-carbonyl]-amino}-3-[4-(2,3-dimethyl-pyridin-4-yl)-phenyl]-propionic acid], for which the EC50 came out at 31 nM.

For the compound `Cc1nc(C)c(C(=O)N2Cc3cc4c(cc3C[C@H]2C(=O)N[C@@H](Cc2ccc(-c3ccnc(C)c3C)cc2)C(=O)O)OC[C@H](c2ccc(OCc3ccc(Cl)c(Cl)c3)cc2)O4)o1` [Example 432, (S)-2-{[(3S,8S)-3-[4-(3,4-Dichloro-benzyloxy)-phenyl]-7-(2,4-dimethyl-oxazole-5-carbonyl)-2,3,6,7,8,9-hexahydro-[1,4]dioxino[2,3-g]isoquinoline-8-carbonyl]-amino}-3-[4-(2,3-dimethyl-pyridin-4-yl)-phenyl]-propionic acid], the EC50 was determined as 21 nM.

Consider `Cc1nccc(Oc2ccc(C[C@H](NC(=O)[C@@H]3Cc4cc5c(cc4CN3S(=O)(=O)C(C)C)O[C@@H](c3ccc(OCc4ccc(Cl)c(Cl)c4)cc3)CO5)C(=O)O)cc2)c1C` [Example 436, (S)-2-{[(3S,8S)-3-[4-(3,4-Dichloro-benzyloxy)-phenyl]-7-(propane-2-sulfonyl)-2,3,6,7,8,9-hexahydro-[1,4]dioxino[2,3-g]isoquinoline-8-carbonyl]-amino}-3-[4-(2,3-dimethyl-pyridin-4-yloxy)-phenyl]-propionic acid], for which the EC50 was found to be 320 nM.
